We go through twelve molecules from patent EP4653016A1, “CONJUGATE OF ERIBULIN DRUG” (SystImmune, Inc., priority 2023, dated 2024).

Common to all, as to assay: Cytotoxicity of compounds to tumor cell lines (MTS, 5 days)
Holding throughout (assay type): cell-based

Assay [1] relates to A431(human epidermal carcinoma cells). As to conditions: A-431, 120 h, A431, 5 days. How it is done:
(§1) In the present invention, various human-derived tumor cell lines (BxPC-3 (human orthotopic pancreatic adenocarcinoma cell), SW620 (human colon cancer cell), H1975 (human lung adenocarcinoma cell), HCC827 (human lung adenocarcinoma cell), FaDu (human pharyngeal squamous cell carcinoma cell) and A431(human epidermal carcinoma cells)) were used as experimental models to evaluate the cytotoxicity of compound to tumor cell lines. A certain number of tumor cells were seeded into a 96-well plate. After the cells adhered to the wall, gradient dilutions of tested compounds were added to the test cells, followed by incubation at 37 °C and 5% CO2 for 5 days. Cell viability was measured using MTS, and the inhibitory effect of the control compounds and the tested compounds on the tumor cell lines was evaluated byIC50. The compound with a starting concentration of 4000 nM was diluted 7 folds, with a total of 8 concentration points. […] Table 5: In vitro pharmacodynamic activity of control compounds and tested compounds in human-derived tumor cell lines BxPC-3, SW620 and H1975: […]

In assay [2] the test system is BxPC-3 (human orthotopic pancreatic adenocarcinoma cell). Particulars: for IC50: Homo sapiens, 120 h, BxPC-3, 5 days, MTS; for anti-tumor effects: in words, BxPC-3, SW620, H1975, HCC827, FaDu and A431 cell models. How it is done:
as §1

Assay [3] has as its system FaDu (human pharyngeal squamous cell carcinoma cell). Particulars: 120 h. How it is done: as §1
The subject of assay [4] is H1975 (human lung adenocarcinoma cell). Particulars: NCI-H1975, 120 h, H1975, 5 days. How it is done: as §1
For assay [5], the system named is HCC827 (human lung adenocarcinoma cell). Particulars: 120 h, HCC827, 5 days. As to the method:
as §1

Assay [6] deals with SW620 (human colon cancer cell). As to conditions: SW-620, 120 h, SW620, 5 days. As to the method: as §1

What is called IC50 is the concentration needed to halve the response being measured. A low value points to greater potency. For `C=C1C[C@@H]2CC[C@@]34C[C@H]5O[C@H]6[C@@H](O3)[C@H]3O[C@H](CC[C@@H]3O[C@H]6[C@H]5O4)CC(=O)C[C@@H]3[C@@H](OC)[C@@H](C[C@H](O)CN)O[C@H]3C[C@H]3O[C@@H](CC[C@@H]1O2)C[C@@H](C)C3=C` [D-4(eribulin), eribulin], the half-maximal inhibitory concentration (IC50) amounted to 0.03 nM in assay [1]; 0.06 nM in assay [2]; 0.73 nM in assay [3]; 0.39 nM in assay [4]; 0.05 nM in assay [5]; 2.56 nM in assay [6].

For `C=CCOC(=O)N(C)C[C@@H](O)C[C@H]1O[C@H]2C[C@H]3O[C@@H](CC[C@@H]4O[C@@H](CC[C@@]56C[C@H]7O[C@H]8[C@@H](O5)[C@H]5O[C@H](CC[C@@H]5O[C@H]8[C@H]7O6)CC(=O)C[C@@H]2[C@H]1OC)CC4=C)C[C@@H](C)C3=C` [D-7], the 50% inhibitory concentration (IC50) was less than 0.005 nM in assay [1]; less than 0.005 nM in assay [2]; 0.01 nM in assay [3]; 0.01 nM in assay [4]; less than 0.005 nM in assay [5]; less than 0.005 nM in assay [6]. The anti-tumor effects result in assay [2] is “the best effects”.

Turning to `C=C1C[C@@H]2CC[C@@]34C[C@H]5O[C@H]6[C@@H](O3)[C@H]3O[C@H](CC[C@@H]3O[C@H]6[C@H]5O4)CC(=O)C[C@@H]3[C@@H](OC)[C@@H](C[C@H](O)CN(C)C(=O)c4ccccc4)O[C@H]3C[C@H]3O[C@@H](CC[C@@H]1O2)C[C@@H](C)C3=C` [D-9], the 50% inhibitory concentration (IC50) in assay [1], in assay [2], in assay [3], in assay [4], in assay [5] and in assay [6] was less than 0.005 nM throughout. The anti-tumor effects entry in assay [2] is “the best effects”.

With `C=C1C[C@@H]2CC[C@@]34C[C@H]5O[C@H]6[C@@H](O3)[C@H]3O[C@H](CC[C@@H]3O[C@H]6[C@H]5O4)CC(=O)C[C@@H]3[C@@H](OC)[C@@H](C[C@H](O)CN(C)C(=O)OCc4ccccc4)O[C@H]3C[C@H]3O[C@@H](CC[C@@H]1O2)C[C@@H](C)C3=C` [D-8], the half-maximal inhibitory concentration (IC50) in assay [1], in assay [2], in assay [3], in assay [4], in assay [5] and in assay [6] was less than 0.005 nM in each case. The anti-tumor effects result in assay [2] is on record as “the best effects”.

`C=C1C[C@@H]2CC[C@@]34C[C@H]5O[C@H]6[C@@H](O3)[C@H]3O[C@H](CC[C@@H]3O[C@H]6[C@H]5O4)CC(=O)C[C@@H]3[C@@H](OC)[C@@H](C[C@H](O)CN(C)S(C)(=O)=O)O[C@H]3C[C@H]3O[C@@H](CC[C@@H]1O2)C[C@@H](C)C3=C` [D-14]: the IC50 in assay [1] worked out at 0.01 nM; in assay [2], 0.01 nM; in assay [3] it was 0.16 nM; in assay [4] it was 0.1 nM; in assay [5], 0.01 nM; in assay [6], 0.19 nM.

As for `C=C1C[C@@H]2CC[C@@]34C[C@H]5O[C@H]6[C@@H](O3)[C@H]3O[C@H](CC[C@@H]3O[C@H]6[C@H]5O4)CC(=O)C[C@@H]3[C@@H](OC)[C@@H](C[C@H](O)CNC(=O)OC(C)(C)C)O[C@H]3C[C@H]3O[C@@H](CC[C@@H]1O2)C[C@@H](C)C3=C` [D-13], the IC50 in assay [1], in assay [2], in assay [3], in assay [4], in assay [5] and in assay [6] was less than 0.005 nM in each case. Further, the anti-tumor effects result in assay [2] is recorded as “the best effects”.

As for `C=C1C[C@@H]2CC[C@@]34C[C@H]5O[C@H]6[C@@H](O3)[C@H]3O[C@H](CC[C@@H]3O[C@H]6[C@H]5O4)CC(=O)C[C@@H]3[C@@H](OC)[C@@H](C[C@H](O)CN(C)C(=O)OC(C)(C)C)O[C@H]3C[C@H]3O[C@@H](CC[C@@H]1O2)C[C@@H](C)C3=C` [D-3], the IC50 in assay [1], in assay [2], in assay [3], in assay [4], in assay [5] and in assay [6] was less than 0.005 nM in each case. The anti-tumor effects result in assay [2] was “the best effects”.

With `C=C1C[C@@H]2CC[C@@]34C[C@H]5O[C@H]6[C@@H](O3)[C@H]3O[C@H](CC[C@@H]3O[C@H]6[C@H]5O4)CC(=O)C[C@@H]3[C@@H](OC)[C@@H](C[C@H](O)CN(C)C(=O)C(C)(C)C)O[C@H]3C[C@H]3O[C@@H](CC[C@@H]1O2)C[C@@H](C)C3=C` [D-12], the half-maximal inhibitory concentration (IC50) in assay [1], in assay [2], in assay [3], in assay [4], in assay [5] and in assay [6] was less than 0.005 nM each time. For the same molecule, the anti-tumor effects entry in assay [2] was “the best effects”.

Consider `C=C1C[C@@H]2CC[C@@]34C[C@H]5O[C@H]6[C@@H](O3)[C@H]3O[C@H](CC[C@@H]3O[C@H]6[C@H]5O4)CC(=O)C[C@@H]3[C@@H](OC)[C@@H](C[C@H](O)CNC)O[C@H]3C[C@H]3O[C@@H](CC[C@@H]1O2)C[C@@H](C)C3=C` [D-2], for which the IC50 turned out to be 0.02 nM in assay [1]; 0.03 nM in assay [2]; 0.37 nM in assay [3]; 0.25 nM in assay [4]; 0.025 nM in assay [5]; 1.25 nM in assay [6].

For the molecule `C=C1C[C@@H]2CC[C@@]34C[C@H]5O[C@H]6[C@@H](O3)[C@H]3O[C@H](CC[C@@H]3O[C@H]6[C@H]5O4)CC(=O)C[C@@H]3[C@@H](OC)[C@@H](C[C@H](O)CN(C)C(=O)C(F)F)O[C@H]3C[C@H]3O[C@@H](CC[C@@H]1O2)C[C@@H](C)C3=C` [D-15], the IC50 was 0.02 nM in assay [1]; 0.03 nM in assay [2]; 0.33 nM in assay [3]; 0.14 nM in assay [4]; 0.02 nM in assay [5]; 0.69 nM in assay [6].

Consider `C=C1C[C@@H]2CC[C@@]34C[C@H]5O[C@H]6[C@@H](O3)[C@H]3O[C@H](CC[C@@H]3O[C@H]6[C@H]5O4)CC(=O)C[C@@H]3[C@@H](OC)[C@@H](C[C@H](O)CNC(=O)[C@H]4C[C@@H](OC)C4)O[C@H]3C[C@H]3O[C@@H](CC[C@@H]1O2)C[C@@H](C)C3=C` [D-21], for which the IC50 in assay [1] was determined as 0.12 nM; in assay [2], 0.05 nM; in assay [3] it was 0.39 nM; in assay [4], 0.24 nM; in assay [5], 0.04 nM; in assay [6], 0.24 nM.

In the case of `C=C1C[C@@H]2CC[C@@]34C[C@H]5O[C@H]6[C@@H](O3)[C@H]3O[C@H](CC[C@@H]3O[C@H]6[C@H]5O4)CC(=O)C[C@@H]3[C@@H](OC)[C@@H](C[C@H](O)CN(C)C(=O)C(C)C)O[C@H]3C[C@H]3O[C@@H](CC[C@@H]1O2)C[C@@H](C)C3=C` [D-11], the IC50 in assay [1] is 0.02 nM; in assay [2] it was 0.01 nM; in assay [3] it was 0.08 nM; in assay [4], 0.06 nM; in assay [5], 0.01 nM; in assay [6], 0.15 nM.
